# In patent US11096985B2, “Antimicrobial peptides, their variants and uses” (priority 2015, dated 2021):
# Entries after “also recorded” stand apart in the source; their conditions may differ. Where a SMILES comes first, the peptide text is derived from it.
# Assays:
# [1] = tested on: Aspergillus flavus (DSM 1959); assay: Radial diffusion assay, antifungal, A. flavus; assay type: cell-based; conditions: 20 μg
# Experimental: (§1) The radial diffusion assay (RDA) was carried out as described by Andersen et al. (2010). Briefly, 30 ml of 1/10 Muller-Hinton broth (MHB) supplemented with 1% agarose and 5.0×10^5 CFU/ml S. aureus or E. coli or K. pneumoniae, P. aeruginosa cells was poured into a single-well omnitray (Nunc) and overlaid with a TSP 96-well plate. One hundred μg of each synthesized peptide was tested. The peptides were also tested against Fusarium oxysporum and Verticillium dahliae, for which 1/3 potato dextrose agarose was used. To test the synergistic effect of peptides, each peptide was mixed in equimolar concentrations. Mix1 (met1-12), Mix2 (met3, 4 and 5), Mix3 (met 8, 9 and 10), Mix 4 (met11, 12) and Mix5 (8, 9, 10, 11, 12) were prepared and tested against E. coli and S. aureus. Gentamicin and vancomycin were included as positive controls for bacteria and amphotericin B was used as the control for fungi.
# (§2) By using rational design techniques, we have designed variants of peptides by incorporating or replacing various amino acids in the original peptides. Thus, we have designed and modified Chain 100, Chain 200 and Chain 300 with tryptophan (W), arginine (R) and lysine (K) at various positions to improve antimicrobial activity (FIGS. 4a-c and 5a-c). In some peptides we have also used other amino acids such as Leucine (L), Cysteine (C), Isoleucine (I), Phenylalanine (F) and Alanine (A). For synthesis, 32 variants and 3 original peptides were selected based on the various parameters such as positive charge, aliphatic index and instability index. Peptides variants were tested by using radial diffusion assay against Escherichia coli (ATCC 25922), Staphylococcus aureus (ATCC 25923), Klebsiella pneumoniae (ATCC 10031) and Pseudomonas aeruginosa (ATCC 27853) (FIGS. 6a-c). The zone of inhibition ranged between 10-18 mm for Escherichia coli and Staphylococcus aureus, 6-18 mm & 8-18 mm for Pseudomonas aeruginosa and Klebsiella pneumonia respectively (Table 2). For Gentamicin it was between 22-24 mm. Antifungal activity was tested for promising antibacterial peptides (Chains 104, 105, 109, 201, 204, 306, 307, 308, 310) against Aspergillus flavus (DSM 1959) and Penicillium chrysogenum (DSM 1075). All these peptides has activity at a concentration of 20 μg, Amphotericin B was used as a positive control at 20 μg (FIG. 7).
# [2] = tested on: Penicillium chrysogenum (DSM 1075); assay: Radial diffusion assay, antifungal, P. chrysogenum; assay type: cell-based; conditions: 20 μg
# Experimental: as §1, §2
# human erythrocytes = assay type: cell-based
# Experimental: In hemolysis assays, the ability of peptides at 128 μg/ml concentration to lyse human erythrocytes to release hemoglobin was measured. The peptides described here preferably have low hemolytic activity (0.2 to 3.8% hemolysis) in mammal body. […] These peptides are useful as antimicrobial drugs as they show little or no side effects at concentrations needed to kill bacteria.
# Minimum inhibition concentrations (MICs) were tested by microbroth dilution method and Chain 104, 105 and 109 inhibited the growth of Escherichia coli (ATCC 25922), Staphylococcus aureus (ATCC 25923), Klebsiella pneumoniae (ATCC 10031) and Pseudomonas aeruginosa (ATCC 27853) between 1-8 μg/ml respectively (Tables 3a, 3b and 3c). The membranolytic activities of the peptides were tested by measuring the release of hemoglobin from erythrocytes of fresh blood donated by voluntiers. Hemoglobin levels were determined spectrometrically by taking OD at 540 nm by following the protocol of Schmidtchen et al., 2011.
# 4 ATCC bacterial strains = assay: Effect of NaCl on MIC; assay type: cell-based; conditions: 200 mM NaCl in MH medium
# Experimental: (§3) Thermal stability was evaluated by diluting peptides to the concentration of 2 mg/ml in PBS buffer (pH 7.4) and incubating at different temperatures, such as +4° C., 25° C. (RT), 37° C. and 45° C., peptides stored at −20° C. were used as control. […] Peptides were also tested by diluting them at different pH values starting from pH 4 to 9. The effect of NaCl on the antimicrobial activity was tested by adding different concentrations (50, 100 and 200 mM) of NaCl to MH medium and the minimum inhibitory concentrations were tested against 4 ATCC bacterial strains.
# E. coli = assay: Transmission electron microscopy of treated E. coli; assay type: cell-based, Escherichia coli; conditions: 10 μg/ml, 37° C., 1 h
# Experimental: E. coli and S. aureus were grown to mid-exponential phase and diluted in Muller Hinton broth (MHB) medium to a cell density of 0.1 by taking absorbance at 600 nm and incubated at 37° C. for 1 h with 10 μg/ml Chain peptides. After incubation, an equal volume of 2% glutaraldehyde in 0.1 M phosphate buffer was added and the cells were pelleted by centrifugation at 5000 rpm for 2 minutes, and the cell pellet was fixed with 1% glutaraldehyde in 0.1 M phosphate. Cells were post-fixed with osmium tetroxide, dehydrated using increasing concentrations of acetone or alcohol, and embedded in plastic resin (Epon). Ultrathin sections (70-80 nm) were post-stained with uranyl acetate and lead citrate before observation with TEM. Microscopy was performed with a Tecnai G2 Spirit 120 kV TEM with Veleta and Quemesa CCD cameras.
# [3] = tested on: gram positive and negative bacteria; assay: MIC by micro broth dilution, summary over the strains tested; assay type: cell-based
# Experimental: Minimum inhibition concentrations (MICs) were determined against Escherichia coli (ATCC 25922), Staphylococcus aureus (ATCC 25923), Klebsiella pneumoniae (ATCC 10031) and Pseudomonas aeruginosa (ATCC 27853). Also clinical strains of E. coli, K. pneumoniae, E. cloacae, P. aeruginosa, Serratia marcescens, Proteus mirabilis, S. pneumoniae, Acinetobacter baumannii, A. johnsonii and S. aureus were used for MICs assays. Additionally, clinical strains of yeast including Candida albicans, C. glabrata, C. parapsilosis and C. quillermondiae were used. The susceptibility of these microorganisms to Chain peptides were determined using micro broth dilution assay. Colonies of the respective microorganism from Muller Hinton (MH) agar plates incubated overnight were suspended in MH broth media and final concentration of microorganism was adjusted to 5.0×10^5 cfu/ml. An aliquot of 10 μl of each Chain peptide, or gentamicin, tetracycline as reference antibiotics were added in differing concentrations along with 90 μl of bacterial suspension to 96 well polypropylene plates and incubated at 37° C. for 20 to 24 hours. Concentrations of Chain peptides and reference antibiotics ranged from 0.125 to 128 μg/ml and the MICs were recorded as the lowest concentration with no visual growth of bacteria. Similarly, antifungal MICs were tested in Potato dextrose broth.
# [4] = +4, 25, 37 and 45° C., 14 days, PBS pH 7.4, RDA with 20 μg
# Experimental: as §3
# [5] = pH 4-9, RDA
# Experimental: as §3
smiles,measurement,setting,value
CC(C)C[C@H](NC(=O)[C@H](CC(C)C)NC(=O)[C@H](Cc1ccccc1)NC(=O)[C@H](Cc1c[nH]c2ccccc12)NC(=O)[C@H](CCCCN)NC(=O)[C@H](CC(C)C)NC(=O)[C@@H](N)CCCNC(=N)N)C(=O)N[C@@H](Cc1ccccc1)C(=O)N[C@@H](CCCNC(=N)N)C(=O)N[C@@H](CCCCN)C(=O)N[C@@H](CCCNC(=N)N)C(=O)O [Chain308] (H-RLKWFLLFRKR-OH; N-terminus and C-terminus assumed),antifungal activity against Aspergillus flavus,[1],has activity; also recorded: particularly active
same,antifungal activity against Penicillium chrysogenum,[2],has activity; also recorded: particularly active
same,side effects to humans as tested by hemolysis assay,human erythrocytes,little side effects
same,increase in MIC values with NaCl,4 ATCC bacterial strains,2 fold
same,TEM observation of E. coli cells,E. coli,almost all E. coli cells had lost their rod-shaped structural integrity
same,activity against the four ATCC strains,[3],very active
same,thermostability (antibacterial activity kept after incubation),[4],not hindered by pH or temperature even upto 45 °C for over 14 days
same,pH stability (zone of inhibition),[5],not hindered by pH
